Measurements as given in patent US8293768B2, “Organic compounds” (Novartis AG, priority 2006, dated 2012).

| melting point [°C] | Compound |
| --- | --- |
| 165 to 166 | Cc1nc(N2CCN(Cc3ccc(OC(F)(F)F)cc3)C2=O)sc1C(=O)NCc1cccnc1 [Example 9.22, 4-methyl-2-(2-oxo-3-(4-(trifluoromethoxy)benzyl)imidazolidin-1-yl)-N-(pyridin-3-ylmethyl)thiazole-5-carboxamide] |
| 185 to 186 | Cc1csc(N2CCN(Cc3ccc(C(=O)NCc4ccccc4)cc3)C2=O)n1 [Example 8.9, N-benzyl-4-((3-(4-methylthiazol-2-yl)-2-oxoimidazolidin-1-yl)methyl)benzamide] |
| 176 to 177 | Cc1ncc(CNC(=O)c2sc(-n3cnn(Cc4ccc(F)cc4)c3=O)nc2C)s1 [Example 21.11, 2-(1-(4-fluorobenzyl)-5-oxo-1H-1,2,4-triazol-4(5H)-yl)-4-methyl-N-((2-methylthiazol-5-yl)methyl)thiazole-5-carboxamide] |
| 122 to 124 | CCOC(=O)c1sc(N2CCN(Cc3ccccc3)C2=O)nc1C [Example 5, ethyl 2-(3-benzyl-2-oxoimidazolidin-1-yl)-4-methylthiazole-5-carboxylate] |
| 126 to 127 | CCOC(=O)c1sc(N2CCN(Cc3ccc(C(F)(F)F)cc3)C2=O)nc1C [Example 5.2, ethyl 4-methyl-2-(2-oxo-3-(4-(trifluoromethyl)benzyl)imidazolidin-1-yl)thiazole-5-carboxylate] |
| 225 to 228 | Cc1nc(N2CCN(Cc3cccc4cccnc34)C2=O)sc1C(=O)NCc1cccnc1 [Example 32.2, 4-methyl-2-(2-oxo-3-(quinolin-8-ylmethyl)imidazolidin-1-yl)-N-(pyridin-3-ylmethyl)thiazole-5-carboxamide] |
| 222 to 225 | Cc1nc(N2CCN(Cc3ccc(F)cc3)C2=O)sc1C(=O)NCc1cccnn1 [Example 32.15, 2-(3-(4-fluorobenzyl)-2-oxoimidazolidin-1-yl)-4-methyl-N-(pyridazin-3-ylmethyl)thiazole-5-carboxamide] |
| 109 to 111 | Cc1nc(N2CCN(Cc3c(C)noc3-c3ccccc3)C2=O)sc1C(=O)NCc1cccnc1 [Example 32.4, 4-methyl-2-(3-((3-methyl-5-phenylisoxazol-4-yl)methyl)-2-oxoimidazolidin-1-yl)-N-(pyridin-3-ylmethyl)thiazole-5-carboxamide] |
| 146 to 147 | Cc1nc(N2CCN(CC3CC3)C2=O)sc1C(=O)NCc1ccc(F)cc1 [Example 9.15, 2-(3-(cyclopropylmethyl)-2-oxoimidazolidin-1-yl)-N-(4-fluorobenzyl)-4-methylthiazole-5-carboxamide] |
| 233 to 234 | Cc1nc(-n2cnn(Cc3c(C)noc3C)c2=O)sc1C(=O)NCc1cccnc1 [Example 19.7, 2-(1-((3,5-dimethylisoxazol-4-yl)methyl)-5-oxo-1H-1,2,4-triazol-4(5H)-yl)-4-methyl-N-(pyridin-3-ylmethyl)thiazole-5-carboxamide] |
| 152 to 153 | Cc1nc(N2CCN(Cc3ccccc3)C2=O)sc1C(=O)NCc1ccc(F)c(F)c1 [Example 9.5, 2-(3-benzyl-2-oxoimidazolidin-1-yl)-N-(3,4-difluorobenzyl)-4-methylthiazole-5-carboxamide] |
| 213 to 215 | Cc1ncc(CNC(=O)c2sc(N3CCN(Cc4ccc(F)cc4)C3=O)nc2C)s1 [Example 32.12, 2-(3-(4-fluorobenzyl)-2-oxoimidazolidin-1-yl)-4-methyl-N-((2-methylthiazol-5-yl)methyl)thiazole-5-carboxamide] |
| 225 to 226 | Cc1nc(-n2cnn(Cc3ccc(F)cc3)c2=O)sc1C(=O)NCc1cn(C)cn1 [Example 21.14, 2-(1-(4-fluorobenzyl)-5-oxo-1H-1,2,4-triazol-4(5H)-yl)-4-methyl-N-((1-methyl-1H-imidazol-4-yl)methyl)thiazole-5-carboxamide] |
| 151 to 152 | Cc1nc(-n2cnn(Cc3ccc(OC(F)F)cc3)c2=O)sc1C(=O)NCc1cccnc1 [Example 21.1, 2-(1-(4-(difluoromethoxy)benzyl)-5-oxo-1H-1,2,4-triazol-4(5H)-yl)-4-methyl-N-(pyridin-3-ylmethyl)thiazole-5-carboxamide] |
| 141 to 142 | CC(=O)c1sc(N2CCN(Cc3ccc(C(F)(F)F)cc3)C2=O)nc1C [Example 5.10, 1-(5-acetyl-4-methylthiazol-2-yl)-3-(4-(trifluoromethyl)benzyl)imidazolidin-2-one] |
| 265 to 267 | Cc1cc(N2CCN(Cc3ccc(F)cc3)C2=O)sc1C(=O)NCc1nc2ccccc2[nH]1 [Example 55.4, N-((1H-benzo[d]imidazol-2-yl)methyl)-5-(3-(4-fluorobenzyl)-2-oxoimidazolidin-1-yl)-3-methylthiophene-2-carboxamide] |
| 133 to 134 | Cc1nc(N2C(=O)N(Cc3ccc(F)cc3)CC2O)sc1C(=O)NCc1ccccc1 (stereo not shown) [Example 16, N-benzyl-2-(3-(4-fluorobenzyl)-5-hydroxy-2-oxoimidazolidin-1-yl)-4-methylthiazole-5-carboxamide] |

| melting point [°C] | Compound |
| --- | --- |
| 146 to 149 | Cc1nc(N2CCN(Cc3ccc(F)cc3)C2=O)sc1C(=O)NCc1ccncc1 [Example 32.23, 2-(3-(4-fluorobenzyl)-2-oxoimidazolidin-1-yl)-4-methyl-N-(pyridin-4-ylmethyl)thiazole-5-carboxamide] |
| 185 to 188 | Cc1cc(CN2CCN(c3nc(C)c(C(=O)NCc4cccnc4)s3)C2=O)no1 [Example 32.3, 4-methyl-2-(3-((5-methylisoxazol-3-yl)methyl)-2-oxoimidazolidin-1-yl)-N-(pyridin-3-ylmethyl)thiazole-5-carboxamide] |
| 156 to 157 | Cc1nc(N2CCN(CCc3ccccc3)C2=O)sc1C(=O)NCc1ccccc1 [Example 9.11, N-benzyl-4-methyl-2-(2-oxo-3-phenethylimidazolidin-1-yl)thiazole-5-carboxamide] |
| 195 to 196 | Cc1nc(N2CCN(Cc3ccc(OC(F)(F)F)cc3)C2=O)sc1C(=O)NCCC1CC1 [Example 8.3, N-(2-cyclopropylethyl)-4-methyl-2-(2-oxo-3-(4-(trifluoromethoxy)benzyl)imidazolidin-1-yl)thiazole-5-carboxamide] |
| 166 to 167 | Cc1nc(N2CCN(Cc3ccc(OC(F)F)cc3)C2=O)sc1C(=O)NCc1cccnc1 [Example 9.24, 2-(3-(4-(difluoromethoxy)benzyl)-2-oxoimidazolidin-1-yl)-4-methyl-N-(pyridin-3-ylmethyl)thiazole-5-carboxamide] |
| 183 to 184 | Cc1nc(N2CCN(Cc3ccc(F)cc3)C2=O)sc1C(=O)NCCN1CCCC1 [Example 8.4, 2-(3-(4-fluorobenzyl)-2-oxoimidazolidin-1-yl)-4-methyl-N-(2-(pyrrolidin-1-yl)ethyl)thiazole-5-carboxamide] |
| 183 to 185 | Cc1nc(N2CCN(Cc3ccc(F)cc3)C2=O)sc1C(=O)NCc1ccccn1 [Example 32.21, 2-(3-(4-fluorobenzyl)-2-oxoimidazolidin-1-yl)-4-methyl-N-(pyridin-2-ylmethyl)thiazole-5-carboxamide] |
| 184 to 186 | Cc1nc(N2CCN(Cc3ccc(OC(F)(F)F)cc3)C2=O)sc1C(=O)NCC1CC1 [Example 8.12, N-(cyclopropylmethyl)-4-methyl-2-(2-oxo-3-(4-(trifluoromethoxy)benzyl)imidazolidin-1-yl)thiazole-5-carboxamide] |
| 222 to 224 | Cc1csc(N2CCN(Cc3ccc(C(=O)O)cc3)C2=O)n1 [Example 6.23, 4-((3-(4-methylthiazol-2-yl)-2-oxoimidazolidin-1-yl)methyl)benzoic acid] |
| 215 to 217 | Cc1nc(N2CCN(CCc3c[nH]c4ccccc34)C2=O)sc1C(=O)NCc1ccccc1 [Example 23.7, 2-(3-(2-(1H-indol-3-yl)ethyl)-2-oxoimidazolidin-1-yl)-N-benzyl-4-methylthiazole-5-carboxamide] |
| 180 to 182 | Cc1cc(-n2cnn(Cc3ccc(F)cc3)c2=O)sc1C(=O)NCc1cccnc1 [Example 31, 5-(1-(4-fluorobenzyl)-5-oxo-1H-1,2,4-triazol-4(5H)-yl)-3-methyl-N-(pyridin-3-ylmethyl)thiophene-2-carboxamide] |
| 171 to 172 | Cc1nc(N2C(=O)N(Cc3ccc(C(F)(F)F)cc3)CC2O)sc1C(=O)NCc1cccnc1 (stereo not shown) [Example 16.3, 2-(5-hydroxy-2-oxo-3-(4-(trifluoromethyl)benzyl)imidazolidin-1-yl)-4-methyl-N-(pyridin-3-ylmethyl)thiazole-5-carboxamide] |
| 124 to 125 | Cc1nc(-n2cnn(Cc3ccc(C(F)(F)F)o3)c2=O)sc1C(=O)NCc1cccnc1 [Example 21.6, 4-methyl-2-(5-oxo-1-((5-(trifluoromethyl)furan-2-yl)methyl)-1H-1,2,4-triazol-4(5H)-yl)-N-(pyridin-3-ylmethyl)thiazole-5-carboxamide] |
| 184 to 185 | Cc1nc(N2CCN(Cc3ccc(OC(F)(F)F)cc3)C2=O)sc1C(=O)NCCc1ccccc1 [Example 9.31, 4-methyl-2-(2-oxo-3-(4-(trifluoromethoxy)benzyl)imidazolidin-1-yl)-N-phenethylthiazole-5-carboxamide] |
| 142 to 143 | Cc1nc(N2CCN(Cc3ccc(C(F)F)o3)C2=O)sc1C(=O)NCc1cccnc1 [Example 9.45, 2-(3-((5-(difluoromethyl)furan-2-yl)methyl)-2-oxoimidazolidin-1-yl)-4-methyl-N-(pyridin-3-ylmethyl)thiazole-5-carboxamide] |
| 139 to 141 | Cc1nc(N2CCN(Cc3nc(C)n(-c4ccccc4)n3)C2=O)sc1C(=O)NCc1ccccc1 [Example 23.5, N-benzyl-4-methyl-2-(3-((5-methyl-1-phenyl-1H-1,2,4-triazol-3-yl)methyl)-2-oxoimidazolidin-1-yl)thiazole-5-carboxamide] |
| 176 to 178 | Cc1nc(N2CCN(Cc3ccc(C#N)cc3)C2=O)sc1C(=O)NCc1ccccc1 [Example 23, N-benzyl-2-(3-(4-cyanobenzyl)-2-oxoimidazolidin-1-yl)-4-methylthiazole-5-carboxamide] |
